Assay results: article PMC9226319, “Peripherally restricted transthyretin-based delivery system for probes and therapeutics avoiding opioid-related side effects” (Nature Communications, 2022)
Several values for one entry are separate records, joined by “and”; a condition that tells them apart may be missing. Equal entries are not always repeated. Where two headings read alike, the source gives them in different places.

Columns and labels:
[1] = target: human mu-opioid receptors (Homo sapiens, UniProt P35372); conditions: cited from earlier work
TTR in human serum = TTR in human serum (Homo sapiens, UniProt P02766); assay: TTR serum fluorescent probe exclusion (FPE) selectivity assay; type: binding; conditions: ligand 10 µM; for %FPE probe fluorescence: human serum, replicates
purified human TTR = purified human TTR (Homo sapiens, UniProt P02766); assay: Fluorescence polarization (FP) binding assay, ligands to TTR in buffer
holo-RBP-TTR interaction = holo-RBP-TTR interaction (Homo sapiens, UniProt P02766); assay: Effect on holo-RBP-TTR interaction in human serum (cross-linking, Western blot); conditions: human serum, quantified from gel image, replicates (Supp Fig.14b)
male Sprague-Dawley rats = conditions: cited from earlier work

Chain of human mu-opioid receptors (P35372 whole entry): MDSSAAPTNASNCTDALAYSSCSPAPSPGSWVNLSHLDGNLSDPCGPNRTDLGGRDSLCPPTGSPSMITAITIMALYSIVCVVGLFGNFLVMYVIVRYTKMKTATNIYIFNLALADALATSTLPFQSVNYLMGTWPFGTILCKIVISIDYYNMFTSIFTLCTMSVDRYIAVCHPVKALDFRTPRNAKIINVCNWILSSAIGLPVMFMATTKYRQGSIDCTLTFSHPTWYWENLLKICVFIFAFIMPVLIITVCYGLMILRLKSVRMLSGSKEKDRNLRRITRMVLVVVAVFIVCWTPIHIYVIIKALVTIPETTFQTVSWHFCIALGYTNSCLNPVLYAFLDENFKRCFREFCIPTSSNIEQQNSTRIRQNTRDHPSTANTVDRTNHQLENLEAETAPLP

C[N+]1(CC2CC2)CC[C@]23c4c5ccc(O)c4O[C@H]2C(=O)CC[C@@]3(O)[C@H]1C5 (some centres unmarked) [MNTX]
affinity for the mu-opioid receptors as % of naltrexone [1]: 1%
Ki ([1]; read-out: binding affinity to mu-opioid receptor (Ki)): 22.1 nM

Cc1n[nH]c(C)c1CCCOc1cc(OCCCCCCN)cc(C(=O)O)c1 [Compound 1]
% TTR occupancy in human serum (TTR in human serum; FPE probe 3.6 µM, 3 h reading relative to probe alone, text mean ± s.d., table replicates): 80.97% and 81.01% and 82.98% and 80.85%
%FPE probe fluorescence (TTR in human serum; time 0.000 h): 0.000%
%FPE probe fluorescence (TTR in human serum; time 0.083 h): 1.647% and 2.385% and -0.604% and 3.064%
%FPE probe fluorescence (TTR in human serum; time 0.250 h): 1.886% and 5.252% and 4.502% and 2.159%
%FPE probe fluorescence (TTR in human serum; time 0.500 h): 6.344% and 5.631% and 7.192% and 4.320%
%FPE probe fluorescence (TTR in human serum; time 1.000 h): 3.308% and 7.416% and 10.395% and 10.953%
%FPE probe fluorescence (TTR in human serum; time 1.250 h): 4.585% and 8.580% and 11.565% and 11.702%
%FPE probe fluorescence (TTR in human serum; time 1.500 h): 7.132% and 12.681% and 12.080% and 11.106%
%FPE probe fluorescence (TTR in human serum; time 1.750 h): 8.769% and 12.456% and 13.547% and 12.819%
%FPE probe fluorescence (TTR in human serum; time 2.000 h): 10.680% and 14.441% and 12.622% and 13.836%
%FPE probe fluorescence (TTR in human serum; time 2.250 h): 13.720% and 16.433% and 14.485% and 14.975%
%FPE probe fluorescence (TTR in human serum; time 2.500 h): 13.664% and 19.254% and 16.706% and 17.421%
%FPE probe fluorescence (TTR in human serum; time 2.750 h): 17.610% and 18.428% and 15.401% and 17.419%
%FPE probe fluorescence (TTR in human serum; time 3.000 h): 19.032% and 18.994% and 17.022% and 19.151%
%FPE probe fluorescence (TTR in human serum; time 3.500 h): 21.344% and 21.727% and 19.004% and 22.809%
%FPE probe fluorescence (TTR in human serum; time 3.750 h): 22.381% and 21.465% and 19.735% and 21.684%
%FPE probe fluorescence (TTR in human serum; time 4.000 h): 24.245% and 24.044% and 22.333% and 25.118%
%FPE probe fluorescence (TTR in human serum; time 4.250 h): 24.067% and 25.243% and 24.565% and 26.782%
%FPE probe fluorescence (TTR in human serum; time 4.500 h): 26.784% and 27.018% and 26.091% and 25.883%
%FPE probe fluorescence (TTR in human serum; time 4.750 h): 28.232% and 25.575% and 25.168% and 25.868%
%FPE probe fluorescence (TTR in human serum; time 5.000 h): 29.310% and 28.226% and 25.991% and 29.486%
%FPE probe fluorescence (TTR in human serum; time 5.250 h): 29.376% and 30.191% and 26.180% and 29.320%
%FPE probe fluorescence (TTR in human serum; time 5.500 h): 30.897% and 29.807% and 29.795% and 31.357%
%FPE probe fluorescence (TTR in human serum; time 5.750 h): 32.177% and 31.200% and 28.228% and 32.379%
%FPE probe fluorescence (TTR in human serum; time 6.000 h): 33.601% and 32.676% and 30.907% and 33.191%
Kd (purified human TTR; FP assay, Kd from IC50 by Cheng-Prusoff, read-out: binding affinity to TTR in buffer (Kd)): 68.5 nM
% Fluorescence polarization (mean) (purified human TTR; log [nM] inhibitor 0.990): 100.000%
% Fluorescence polarization (mean) (purified human TTR; log [nM] inhibitor 1.291): 100.180%
% Fluorescence polarization (mean) (purified human TTR; log [nM] inhibitor 1.592): 101.890%
% Fluorescence polarization (mean) (purified human TTR; log [nM] inhibitor 1.893): 93.660%
% Fluorescence polarization (mean) (purified human TTR; log [nM] inhibitor 2.194): 79.820%
% Fluorescence polarization (mean) (purified human TTR; log [nM] inhibitor 2.495): 50.610%
% Fluorescence polarization (mean) (purified human TTR; log [nM] inhibitor 2.796): 29.820%
% Fluorescence polarization (mean) (purified human TTR; log [nM] inhibitor 3.097): 10.200%
% Fluorescence polarization (mean) (purified human TTR; log [nM] inhibitor 3.398): 5.680%
% Fluorescence polarization (mean) (purified human TTR; log [nM] inhibitor 3.699): 2.100%
% Fluorescence polarization (mean) (purified human TTR; log [nM] inhibitor 4.000): 0.000%
% Fluorescence polarization (mean) (purified human TTR; log [nM] inhibitor […]): 0.000%
%holo RBP binding to TTR (holo-RBP-TTR interaction): 8% and 6.2% and 5.8%

CN(C)C(=O)C(CCN1CCC(O)(c2ccc(Cl)cc2)CC1)(c1ccccc1)c1ccccc1 [Loperamide]
GI transit (male Sprague-Dawley rats; 30 mg/kg): 30%
GI transit (male Sprague-Dawley rats; subcutaneous 1 mg/kg): 50%
ED50 for inducing constipation (male Sprague-Dawley rats; subcutaneous): 1 mg/kg
